Test results: the NIST ThermoML archive (doi:10.1016/j.tca.2012.10.004)

Test: relative permittivity at zero frequency (dimensionless); xn = mol fraction of the nth substance listed
Conditions: 101 kPa, Liquid, Coaxial cylinder capacitor

CN(CCO)CCO [N-methyldiethanolamine] + O=S1(=O)CCCC1
relative permittivity at zero frequency
Conditions | x1 = 0.1001 | x1 = 0.2012 | x1 = 0.2999 | x1 = 0.4003 | x1 = 0.5005 | x1 = 0.6 | x1 = 0.7002 | x1 = 0.8011 | x1 = 0.8998 | x1 = 1
293.15 K | 40.8 | 38.3 | 35.5 | 33.5 | 31.7 | 30.2 | 28.4 | 26.6 | 24.6 | 22.9
298.15 K | 40.1 | 37.6 | 34.8 | 32.8 | 31 | 29.5 | 27.7 | 26 | 24.1 | 22.4
303.15 K | 39.4 | 36.9 | 34.1 | 32.1 | 30.3 | 28.8 | 27 | 25.3 | 23.6 | 21.8
308.15 K | 38.7 | 36.1 | 33.4 | 31.3 | 29.5 | 28.1 | 26.3 | 24.6 | 22.9 | 21.3
313.15 K | 38 | 35.5 | 32.7 | 30.6 | 28.7 | 27.4 | 25.6 | 24 | 22.2 | 20.8
318.15 K | 37.4 | 34.6 | 32 | 29.9 | 28 | 26.7 | 24.9 | 23.3 | 21.7 | 20.3
323.15 K | 36.7 | 33.9 | 31.3 | 29.2 | 27.3 | 26 | 24.2 | 22.7 | 21.2 | 19.8
328.15 K | 36.2 | 33.2 | 30.6 | 28.5 | 26.5 | 25.2 | 23.5 | 22.1 | 20.5 | 19.3
